Experimental findings from patent publication US4436732A, “Medicated compound for treating diseases infected by virus of the herpes group” (priority 1981, dated 1984) are described below.

Data set [1] can be described thus: effect on characteristics of blood coagulation. As to conditions: per os, 50 mg/kg, during 4 hours. In kind it is in vivo, rabbits. On the procedure:
The study of the effect of the active principle on certain characteristics of blood coagulation has been carried out on 5 rabbits. The compound is administered per os in the dose of 50 mg/kg as a suspension in a 2% starch paste. Blood has been examined prior to the administration and during 4 hours after a single-time administration of the suspension; determined are: blood plasma recalcification, thrombin time, thrombelastographic characteristics and thrombocyte concentration.

The subject of data set [2] is HV (virus of the herpes group). The experiment in a line: antiviral properties in vitro in a culture of cells of fibroblasts of a chicken embryo (virus-suppressing effect, cytopathogenic effect). Format: cell-based. As to conditions: 10 μg/ml; 100 TCD50 HV. As for the experimental part:
The study of antiviral properties of the active principle has been carried out in in vitro experiments in a culture of cells of fibroblasts of a chicken embryo following a commonly employed procedure for primary screening of antiviral preparations. Cells are grown in flasks or test-tubes on the nutrient medium 199 with the addition of 5 to 10 vol.% of cattle serum. Then, for the contact of the virus with cells, into the flasks a virus-containing material is added in doses of 1, 10, 100 and 1,000 TCD50. […] Flasks or test-tubes are then subjected to thermosetting at the temperature of 37° C. The virus-suppressing effect is determined for 5 days by way of comparison of the presence of cytopathogenic effect in the control and test flasks and test-tubes. As the control use is made of: control of the single layer of cells, the control of the active principle without virus and the control of the virus without the active principle.
(In general: Damage to the host cells serves as the signal in cytopathic effect assays.)

Data set [3] can be described thus: solubility of the active principle. Format: physicochemical. From the text: The active principle is an individual substance of the xanthone nature (mangiferin euxantogen) of the formula C19 H18 O11. […] This compound has not been hitherto used in the medicine.
A short description of data set [4]: cardiological effect / electrocardiographic characteristics. Format: in vivo, rabbits. As to conditions: for increase of amplitude of cardiac contractions: P=0.05. From the text: (§1) The cardiological effect of the active principle has been studied in experiments on an isolated cat's heart; the effect on electrocardiographic characteristics has been studied in experiments on rabbits; the vasodilative effect--on vessels of an isolated rabbit's ear; the spasmolytic effect--on acetylcholine and barium spasms of smooth muscles of an isolated section of a rat's small intestine.
The studies have shown that upon the intravenous administration to rabbits of the active principle in the dose of 20 mg/kg it causes increased amplitude of cardiac contractions by 34% (P=0.05), in the dose of 50 mg/kg--by 41% (P=0.05); rarefaction of the rhythm of cardiac contractions in rabbits by 10-18% on the average and increase of the voltage of the peak P by 32%. […] A slight increase of the voltage of the peak P on the average by 20% is observed.

The nature of data set [5]: cardiorhythmic effect on the aconitine model of arrhythmia. As to conditions: intravenous, 10 and 50 mg/kg. Format: in vivo, rat. As for the experimental part: The cardiorhythmic effect of the active principle has been studied on the rat's aconitine model of arrhythmia upon its intravenous administration in the doses of 10 and 50 mg/kg.
The subject of data set [6] is vessels of an isolated rabbit's ear. Nature of the data set: vasodilative effect on vessels of an isolated rabbit's ear.
Text: as §1

Data set [7] in a line: anti-ulcerous effect on the model of caffeine-arsenic ulcer. Format: in vivo, rats. The note with it: per os for nine days, 20 mg/kg. On the procedure:
The anti-ulcerous effect of the active principle has been studied on the model of caffeine-arsenic ulcer in rats. The substance is administered per os for nine days in the doses of 1, 10 and 20 mg/kg.

The nature of data set [8]: effect on the intensity of bile secretion, acute tests. In kind it is in vivo, cats. The note with it: 20 and 50 mg/kg. From the text:
In acute tests on cats the effect of the active principle on the intensity of bile secretion has been studied.

Where [9] appears, read: intra-stomach, 50 and 150 mg/kg.

With `O=c1c2cc(O)c(O)cc2oc2cc(O)c([C@@H]3O[C@H](CO)[C@@H](O)[C@H](O)[C@H]3O)c(O)c12` [active principle, 2-C-β-D-glucopyranosyl-1,3,6,7-tetraoxyxanthone], the “effect on the blood coagulation process” value in data set [1] is given as “does not substantially affect”. Further, the virus-suppressing effect result in [2] is “high virus-suppressing effect”. Also, the solubility in chloroform result in data set [3] (chloroform) is “insoluble”. Also, in [3] (ethanol), the solubility in ethanol entry is “sparingly soluble”. For the same molecule, in data set [3] (ethyl ether), the “solubility in ethyl ether” value was “insoluble”. Further, the solubility in water entry in data set [3] (water) was “insoluble”. Also, the “effect on duration of intervals of the cardiac cycle” value in data set [4] (setting [9]) was “no substantial effect”. In addition, the “effect on the rhythm of cardiac contractions” value in [4] (setting [9]) is given as “no substantial effect”. Moreover, the “increase of the voltage of the peak P” value in data set [4] (intra-stomach, 50 and 150 mg/kg, on the average) was 20%; in data set [4] (intravenous, rabbits), 32%. In addition, the “increase of amplitude of cardiac contractions” value in data set [4] (intravenous, rabbits, 20 mg/kg) is listed as 34%; in data set [4] (intravenous, rabbits, 50 mg/kg) it was 41%. In addition, the “rarefaction of the rhythm of cardiac contractions” value in data set [4] (intravenous, rabbits, on the average) is 10-18%. Besides, the cardiostimulant effect result in [4] (rabbit, in vivo) was “slight cardiostimulant effect”. Besides, in data set [5], the cardiorhythmic effect result is recorded as “no cardiorhythmic effect”. In addition, the vasodilative effect result in data set [6] is recorded as “no vasodilative”. In addition, the anti-ulcerous effect result in data set [7] is given as “weak anti-ulcerous effect”. Further, the bile secretion intensity result in data set [8] is “does not increase”. Further, in “mutagenous activity”, the mutagenous activity entry was “no mutagenous activity”.
